Reference: patent publication US20060172941A1, “Anti-angiogenic peptides and methods of use thereof” (priority 2004, published 2006)
Entries after “also recorded” stand apart in the source; their conditions may differ. Where no end group is shown, it is not given here. [ ]: non-standard residue; d: D form.

Key:
[1] = Biological activity of D-amino acid versions of ST100,038 (test not specified); conditions: tested against a control
Procedure: D-amino acid peptides can be made by generating a D-amino acid peptide with the same sequence as a L-amino acid peptide or by preparing a retro inverso form of a peptide. ST100,045 (SEQ ID NO.: 31) has the same sequence as ST100,038 (SEQ ID NO.: 29) was tested against ST100,059 (SEQ ID NO.: 30) which is the retro inverso version of ST100,038 and a control.

[2] = system: RPMI-8226 human myeloma xenografts; test: RPMI-8226 human myeloma subcutaneous xenograft model; assay type: in vivo, mouse; conditions: scid mice, FIG. 16
Procedure: Anti-tumor efficacy of test peptides was evaluated against RPMI-8226 human myeloma xenografts implanted subcutaneously (sc) in severe compromised immunodeficient (scid) mice.
Studies generally consisted of randomly-assigned groups of 8 or 10 mice per group, which were implanted sc with myeloma fragments (30-40 mg). In addition to groups tested with test peptides, studies usually included a vehicle-treated control group and a positive control group treated with an agent known to be active in the RPMI-8226 model. In one type of schedule, mice were treated IP with either vehicle or test peptides starting one day after tumor implantation (implantation day defined as Day 0). Test peptides and vehicle were generally administered IP daily for 3-4 weeks.
Dosing solutions of the test peptides were prepared weekly and kept at −20° C. between injections. […] Each tumor was measured by caliper in two dimensions and converted to tumor mass using the formula for a prolate ellipsoid (a X b^2/2), where a is the longer dimension and b is the smaller dimension, and assuming unit density (1 mm^3=1 mg). Tumor measurements were recorded twice weekly. Body weights were also recorded twice weekly. Anti-tumor activity was assessed by the delay in tumor growth of the treated groups in comparison to the vehicle-treated control group, partial and complete regressions, and tumor-free survivors. […]

[3] = system: Bovine Retinal Endothelial Cells (BRE); test: VEGF-mediated survival/proliferation of bovine retinal endothelial cells (WST1); assay type: cell-based; conditions: VEGF 25 ng/ml, 72 hours, FIG. 4 and 5
Procedure: (§1) The anti-angiogenic activities of the peptides were tested by measuring the level of inhibition of VEGF and bFGF mediated survival/proliferation of Bovine Retinal Endothelial Cells (BRE), Human Dermal Microvasculature Endothelial Cells, and Human Umbilical Vein Endothelial Cells, all of which are standard cell lines used to test anti-angiogenic compounds.
Bovine retinal endothelial (BRE) cells were maintained in Cambrex EG2 media. For non-adherent cell assays, on day one cells were starved for either 6 hours or overnight, then trypsinized and plated in 96-well plates in 100 μl of Optimem plus 1% fetal bovine serum (FBS). One hundred μl of Optimem plus 1% FBS was added to the wells containing, where appropriate, VEGF to a final concentration of 25 ng/ml, and the various peptides to final concentrations as described. For adherent cells, cells were plated in 96-well plates in complete media, allowed to adhere overnight, washed in starvation media (Optimem plus 1% FBS) and then starved during the day. At the end of the day, 100 μl of Optimem plus 1% FBS was added to the wells containing, where appropriate, VEGF to a final concentration of 25 ng/ml and the various peptides to final concentrations as described.
(§2) In all cases, after 72 hours incubation, the amount of live cells in each well was measured with the WST1 assay (Roche).

B16-F1 melanoma cells = test: Subcutaneous B16 melanoma tumor growth in vivo; parameters: species or system mouse; conditions: 20 mg/kg daily IP; for Inhibition of tumor growth: vs untreated controls, FIG. 12 and 14
Procedure: Because of the importance of the angiogenic process for tumorigenesis, miniproteins as described herein, were hypothesized to show good anti-tumor activity. The peptides of the invention were tested in an in vivo model of anti-tumor activity. This model compares the growth of subcutaneous B16 melanoma tumor in vivo either untreated or treated with various amount of miniproteins described in this application. This model is widely accepted in the art as a model to test the anti-tumor activity of compounds that inhibit tumor growth because they have anti-angiogenic activity.
Male C57BL/6 mice were obtained with a mean body weight of 20±2 g. Mouse B16-F1 melanoma cells were implanted subcutaneously (5×10^5 cell per animal). Peptides (formulated in water) were administered ip daily at the amount indicated starting the day after cells injection. In general, tumors became palpable around 9 days after injection of cells. Tumor were then measured every 2 days.

[4] = Heparin binding activity, Hi Trap Heparin HP column, NaCl step elution; conditions: for [NaCl] for elution: heparin column, step gradient in 10 mM NaH2PO4 pH 7
From the text: Liquid chromatography was used to determine the relative levels of heparin binding activity of the individual heparin binding domains and of the anti-angiogenic miniproteins that contains them. In this assay, the strength of the heparin binding activity is proportional to the amount of NaCl that is required to elute the peptide bound to the heparin column. Peptides with low binding activity are eluted with lower NaCl concentration, whereas higher concentrations of NaCl are required for peptides with higher binding activity.
Hi Trap Heparin HP column (1 ml, Amersham Biosciences) was equilibrated with 10 column volumes (CV) of equilibration (EQ) buffer=10 mM NaH2PO4 pH 7. All buffers were loaded onto columns via syringes. 500 μl fractions are collected (flow rate=1 ml/minute). 500 μg of peptide (1 mg/ml, resuspended in EQ buffer) was added to each column and the flow through was collected for analysis. The columns were then washed with 3 CV of EQ buffer. Peptides are then eluted with a step gradient of 500, 625, 750, 875 mM NaCl in EQ buffer, 2 CV per each step. A final step of 3 CV of 1000 mM NaCl in EQ buffer was collected in 500 μl fractions. The A210 nm was measured using EQ and elution buffers as blanks.

[5] = system: Human Dermal Microvasculature Endothelial Cells; test: VEGF-mediated survival/proliferation of human dermal microvasculature endothelial cells; assay type: cell-based; conditions: 30, 100, and 200 μg/ml, FIG. 8
Procedure: as §1, §2
(§3) In a further experiment, the anti-angiogenic activity of peptide ST100,061 (SEQ ID NO.: 3), a derivative of ST100,032 (SEQ-ID NO.: 1), at concentrations of 30, 100, and 200 μg/ml was tested by measuring the level of inhibition of VEGF and bFGF mediated survival/proliferation in human dermal microvasculature endothelial cells.

[6] = system: Human Dermal Microvasculature Endothelial Cells; test: bFGF-mediated survival/proliferation of human dermal microvasculature endothelial cells; assay type: cell-based; conditions: 30, 100, and 200 μg/ml, FIG. 8
Procedure: as §1, §2, §3

L1210 = test: Tumor cell proliferation (WST-1), L1210; assay type: cell-based, mouse; conditions: FIG. 11
Procedure: Peptides to be tested were prepared at a stock concentration of 10 mM in sterile phosphate buffered saline. Cancer cell lines obtained from the American Type Culture Collection (MG-63, HT1080, A498, BxPC3, 786-0, PC-3, B16F1, B16F10, P388D1, Jurkat, MOLT4, THP-1, U-937, L1210, RPMI 8226, NCI H929, U266B1, K562) were cultured under appropriate conditions as described in the literature. Cell culture media and reagents were obtained from ATCC (Manassas, Va.), Invitrogen (Carlsbad, Calif.) or Mediatech (Herndon, Va.). Exponentially growing cultures were used for cell proliferation assays. Adherent cells were plated at a concentration of 100000 cells per milliter in growth media overnight (18-24 h) and treated the next day in a low serum media (growth media with 1% FBS for MG-63, HT1080, A498, BxPC3, PC-3, B16F1, B16F10. 786-0 cells were treated in media with 5% FBS). Suspension cell lines (P388D1, Jurkat, MOLT4, THP-1, U-937, L1210, RPMI 8226, NCI H929, U266B1, and K562) were diluted to a concentration of 100,000 cells per ml and treated on the same day with peptides. Peptides were diluted in treatment media and cells were treated for 48 or 72 hours depending on the cell line. Each dose was tested in triplicate for each experiment, and experiments were repeated for a minimum of three discrete times. After incubation, the relative number of cells was determined using WST-1 (Roche Applied Science). A 9.5 μl aliquot of WST-1 was added to each well. The plate was immediately read at 440 nm using a Bio-Tek PowerWave XS microplate reader, incubated for 2-3 hours at 37° C. and then read again. Cell proliferation was determined as the percent of the control cell proliferation. The absorbance of each well at time 0 was subtracted from the value of the final reading. Afterwards the blank values were averaged and subtracted from each test and control value. Finally, each test absorbance was divided by the average of the control absorbances and multiplied by 100 to obtain the percent of control. […]

[7] = system: Human Umbilical Vein Endothelial Cells; test: bFGF-mediated survival/proliferation of human umbilical vein endothelial cells (WST1); assay type: cell-based; conditions: FIG. 6, 9, 10, 17
Procedure: as §1
Human umbilical cord endothelial (HUVEC) cells were maintained in Cambrex EGM-2MV media. On day one, cells were starved overnight in 1% FBS in M200 media (Cascade Biologicals). The morning after, the media were replaced with serum-free media (control) or media containing 25 ng/ml of human VEGF165 and the various peptides to final concentrations as described.
as §2

[8] = system: L1210 murine leukemia cells; test: L1210 murine leukemia intravenous model, survival; assay type: in vivo, mouse; conditions: dosed IP, FIG. 15a
Procedure: Antitumor activity of test peptides, administered intraperitoneally (IP), were evaluated against L1210 murine leukemia cells implanted intravenously (IV) in DBA/2 mice.
Studies generally consisted of randomly-assigned groups of 8 mice per group, which were inoculated IV with 1×10^5 cells per mouse from an in vivo leukemia cell line. In addition to groups tested with test peptides, studies usually included a vehicle-treated control group and a positive control group treated with an agent known to be active in the L1210 leukemia model. Starting one day after tumor inoculation (inoculation day defined as Day 0), mice were treated IP with either vehicle or test peptides in various schedules. Generally this consisted of treatment every other day for approximately 1 week (e.g., Days 1, 3, 5 and 7). A positive agent (e.g., cyclophosphamide) was usually given as a single IP injection on Day 1. All dosing solutions were prepared on each day of treatment. Survival was monitored daily and body weights were measured twice weekly. Anti-tumor activity was assessed by the increase in lifespan of the treated groups in comparison to the vehicle-treated control group. Studies with the L1210 leukemia model were limited to 30 days.

tumor cells = test: Ability to induce tumor cell death (general statement); assay type: cell-based
Procedure: Peptides to be tested were prepared at a stock concentration of 10 mM in sterile phosphate buffered saline. Cancer cell lines obtained from the American Type Culture Collection (MG-63, HT1080, A498, BxPC3, 786-0, PC-3, B16F1, B16F10, P388D1, Jurkat, MOLT4, THP-1, U-937, L1210, RPMI 8226, NCI H929, U266B1, K562) were cultured under appropriate conditions as described in the literature. Cell culture media and reagents were obtained from ATCC (Manassas, Va.), Invitrogen (Carlsbad, Calif.) or Mediatech (Herndon, Va.). Exponentially growing cultures were used for cell proliferation assays. […] After incubation, the relative number of cells was determined using WST-1 (Roche Applied Science). […] The plate was immediately read at 440 nm using a Bio-Tek PowerWave XS microplate reader, incubated for 2-3 hours at 37° C. and then read again. Cell proliferation was determined as the percent of the control cell proliferation. The absorbance of each well at time 0 was subtracted from the value of the final reading. […] Finally, each test absorbance was divided by the average of the control absorbances and multiplied by 100 to obtain the percent of control.

Sequence | biological activity [1] | Inhibition of tumor growth (B16-F1 melanoma cells) | [NaCl] for elution [4] [mM] | Inhibition of proliferation of mouse leukemia L1210 cells (L1210) | Inhibition of bFGF-mediated survival [7] | further results
ATSLPPHSSQSP (also: D-amino acids noted, form not shown; listed as Homo sapiens) [ST100,045] | Only the retro inverso form of ST100,038, (ST100,059; SEQ ID NO.: 30) was found to be biologically active |  |  |  |  | 
PSQSSHPPLSTA ([dP][dS][dQ][dS][dS][dH][dP][dP][dL][dS][dT][dA]; listed as Homo sapiens) [ST100,059, retro inverso version of ST100,038] | biologically active | clearly inhibit tumor growth | 0 |  |  | Inhibition of tumor growth ([2]; 100 mg/kg daily IP): does not inhibit tumor growth; Inhibition of VEGF-mediated survival/proliferation [3]: VEGF stimulation was inhibited with increasing doses; P (ANOVA) of tumor growth inhibition (B16-F1 melanoma cells; FIG. 12): < 0.05
PYDGRGDSVVYGLRKKKAARGRRAARGRR (listed as Homo sapiens) [ST100,061] |  | may be less active |  |  |  | Inhibition of VEGF mediated survival/proliferation [5]: effective in inhibiting both VEGF and bFGF; Inhibition of bFGF mediated survival/proliferation [6]: effective in inhibiting both VEGF and bFGF
RLGYVVSDGRGDYP (listed as Homo sapiens) [ST100,077] |  |  |  | Neither ST100,077 (SEQ ID NO.: 16) encoding the integrin binding domain or ST100,078 (SEQ ID NO.: 17) encoding the heparin binding domain or the simple combination of the two peptides (ST100,077 and ST100,078) blocked cell proliferation or induced cell death |  | 
RRGRAARRGRAAKKK (listed as Homo sapiens) [ST100,078] |  |  | 875 | Neither ST100,077 (SEQ ID NO.: 16) encoding the integrin binding domain or ST100,078 (SEQ ID NO.: 17) encoding the heparin binding domain or the simple combination of the two peptides (ST100,077 and ST100,078) blocked cell proliferation or induced cell death | not as potent | 
RRGRAARRGRAAKKKRLGYVVSDGRGDYP [ST100,064, retro-inverso form of ST100,061] |  |  | 875 | able to block cell proliferation and induce cell death | can inhibit bFGF mediated survival as effectively as ST100,061; also recorded: the most active in inhibiting bFGF stimulation | Inhibition of tumor growth ([2]; 25 mg/kg daily IP): able to inhibit tumor growth; Survival ([8]; DBA/2 mice): statistically significant increases in survival; mice (cured mice) that survived longer than 30 days [8]: Sixty to eighty; ability to induce tumor cell death (comparison in words) (tumor cells): much more active; heparin binding activity (comparison in words) [4]: much more active; also recorded: bind less strongly than ST100,082
